# Data as given in patent US9382188B2, “Aromatic ring compound” (TAKEDA PHARMACEUTICAL COMPANY LIMITED, priority 2012, dated 2016).
# Target: T1, human GPR40 (Homo sapiens, UniProt O14842)
# T1 construct: expressed in transfected cells
# Assay: Evaluation of human GPR40 agonist activity with increase in intracellular Ca2+ concentration as an index (FLIPR Tetra)
# Assay type: cell-based
# Conditions: test compound 1 μM; CHO(dhfr-) cells stably expressing human GPR40; 100% = activity of 1 μM WO2009/048527 Example 99.2, 0% = DMSO
# In short: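 CHO(dhfr-) cells stably expressing human GPR40, loaded with Calcium 5 dye in HEPES/HBSS buffer with 0.2% fatty acid-free BSA and probenecid, 1 h at 37° C. Test compound added at 1 μM final; fluorescence Ca2+ rise scaled to a reference agonist at 1 μM (100%) and DMSO (0%).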
# T1 sequence (O14842 whole entry): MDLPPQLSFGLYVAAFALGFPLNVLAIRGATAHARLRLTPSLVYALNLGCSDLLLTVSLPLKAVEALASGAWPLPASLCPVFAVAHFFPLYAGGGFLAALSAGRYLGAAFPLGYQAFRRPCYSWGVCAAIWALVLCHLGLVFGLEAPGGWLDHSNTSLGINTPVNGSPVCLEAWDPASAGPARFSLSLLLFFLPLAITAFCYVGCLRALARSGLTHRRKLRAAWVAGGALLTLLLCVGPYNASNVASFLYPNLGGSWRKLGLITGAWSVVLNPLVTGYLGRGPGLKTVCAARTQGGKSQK
row,Structure (SMILES),activation at 1 µM [%]
1,"COc1ccc(F)c(-c2ccc(OCc3cccc(C(CC(=O)O)C4CC4)c3)cc2CC2(C#N)CCC2)c1 (stereo not shown) [Example 102, 3-(3-(((2-((1-cyanocyclobutyl)methyl)-2′-fluoro-5′-methoxybiphenyl-4-yl)oxy)methyl)phenyl)-3-cyclopropylpropanoic acid]",100
2,"COc1ccc(F)c(-c2ccc(OCc3cccc(C(CC(=O)O)C4CC4)c3)cc2CC2(C#N)CC2)c1 (stereo not shown) [Example 103, 3-(3-(((2-((1-cyanocyclopropyl)methyl)-2′-fluoro-5′-methoxybiphenyl-4-yl)oxy)methyl)phenyl)-3-cyclopropylpropanoic acid]",119
3,"COc1cc(-c2ccc(OCc3cccc(C(CC(=O)O)C4CC4)c3)cc2CC(C)(C)C)c(F)cn1 (stereo not shown) [Example 104, 3-cyclopropyl-3-(3-((3-(2,2-dimethylpropyl)-4-(5-fluoro-2-methoxypyridin-4-yl)phenoxy)methyl)phenyl)propanoic acid]",105
4,"CCCC(C)(C)Cc1cc(OCc2cccc(C(CC(=O)O)C3CC3)c2)ccc1-c1cc(OC)ccc1F (stereo not shown) [Example 105, 3-cyclopropyl-3-(3-(((2-(2,2-dimethylpentyl)-2′-fluoro-5′-methoxybiphenyl-4-yl)oxy)methyl)phenyl)propanoic acid]",116
5,"CCC(C)(C)Cc1cc(OCc2cccc(C(CC(=O)O)C3CC3)c2)ccc1-c1cc(OC)ccc1F (stereo not shown) [Example 106, 3-cyclopropyl-3-(3-(((2-(2,2-dimethylbutyl)-2′-fluoro-5′-methoxybiphenyl-4-yl)oxy)methyl)phenyl)propanoic acid]",96
6,"CCC(C)(C)C(F)c1cc(OCc2cccc(C(CC(=O)O)C3CC3)c2)ccc1-c1cc(OC)ccc1F (stereo not shown) [Example 107, 3-cyclopropyl-3-(3-(((2′-fluoro-2-(1-fluoro-2,2-dimethylbutyl)-5′-methoxybiphenyl-4-yl)oxy)methyl)phenyl)propanoic acid]",126
7,"CCC(C)(C)C(O)c1cc(OCc2cccc(C(CC(=O)O)C3CC3)c2)ccc1-c1cc(OC)ccc1F (stereo not shown) [Example 108, 3-cyclopropyl-3-(3-(((2′-fluoro-2-(1-hydroxy-2,2-dimethylbutyl)-5′-methoxybiphenyl-4-yl)oxy)methyl)phenyl)propanoic acid]",129
8,"CCC(C)(C)C(OC)c1cc(OCc2cccc(C(CC(=O)O)C3CC3)c2)ccc1-c1cc(OC)ccc1F (stereo not shown) [Example 109, 3-cyclopropyl-3-(3-(((2′-fluoro-5′-methoxy-2-(1-methoxy-2,2-dimethylbutyl)biphenyl-4-yl)oxy)methyl)phenyl)propanoic acid]",119
9,"CCC(C)(C)C(OCCOC)c1cc(OCc2cccc(C(CC(=O)O)C3CC3)c2)ccc1-c1cc(OC)ccc1F (stereo not shown) [Example 110, 3-cyclopropyl-3-(3-(((2′-fluoro-5′-methoxy-2-(1-(2-methoxyethoxy)-2,2-dimethylbutyl)biphenyl-4-yl)oxy)methyl)phenyl)propanoic acid]",94
10,"CCC(CC)(CC)Cc1cc(OCc2cccc(C(CC(=O)O)C3CC3)c2)ccc1-c1cc(OC)ccc1F (stereo not shown) [Example 111, 3-cyclopropyl-3-(3-(((2-(2,2-diethylbutyl)-2′-fluoro-5′-methoxybiphenyl-4-yl)oxy)methyl)phenyl)propanoic acid]",111
11,"CCC(C)(CC)Cc1cc(OCc2cccc(C(CC(=O)O)C3CC3)c2)ccc1-c1cc(OC)ccc1F (stereo not shown) [Example 112, 3-cyclopropyl-3-(3-(((2-(2-ethyl-2-methylbutyl)-2′-fluoro-5′-methoxybiphenyl-4-yl)oxy)methyl)phenyl)propanoic acid]",108
12,"COc1ccc(F)c(-c2ccc(OCc3cccc(C(CC(=O)O)C4CC4)c3)cc2CCCC(C)(C)C)c1 (stereo not shown) [Example 113, 3-cyclopropyl-3-(3-(((2-(4,4-dimethylpentyl)-2′-fluoro-5′-methoxy-[1,1′-biphenyl]-4-yl)oxy)methyl)phenyl)propanoic acid]",102
13,"COc1ccc(F)c(-c2ccc(OCc3cccc(C(CC(=O)O)C4CC4)c3)cc2COCC(C)(C)C)c1 (stereo not shown) [Example 114, 3-cyclopropyl-3-(3-(((2′-fluoro-5′-methoxy-2-((neopentyloxy)methyl)-[1,1′-biphenyl]-4-yl)oxy)methyl)phenyl)propanoic acid]",103
